These results are taken from patent publication US20230072683A1, “PYRIDO-PYRIMIDIN DERIVATIVES AND PHARMACEUTICAL COMPOSITION, FOR USE IN PREVENTING OR TREATING PI3 KINASE RELATED DISEASES, COMPRISING SAME AS ACTIVE INGREDIENT” (BORYUNG PHARMACEUTICAL CO., LTD, priority 2019, published 2023).

As a reminder, the inhibition is the change of the read-out against control, counted positive when it falls.

The structures appear in SMILES notation.

Assay [1] deals with PI3K-δ (PI3K(p1108/p857) (h)) (Homo sapiens, UniProt O00329). Put plainly: Evaluation of inhibitory activity against PI3K-δ (HTRF kinase assay). To be noted: for inhibition at 0.01 µM: compound concentration 0.01 μM, read-out: EXP_VALUE(% Inhibition) PI3K-δ 0.01 μM; for inhibition at 0.1 µM: compound concentration 0.1 μM, read-out: EXP_VALUE(% Inhibition) PI3K-δ 0.1 μM. It counts as biochemical. A digest of the protocol:
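HTRF read-out (665/620 nm ratio ×10000) used Eu-labelled anti-GST, GST-tagged GRP1 PH domain and streptavidin-allophycocyanin after EDTA/PIP3 stop.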

The target in the next assay is DNA-PK(h) (Homo sapiens, UniProt P78527). Put plainly: Evaluation of inhibitory activity against DNA-PK (HTRF kinase assay, GST-cMyc-p53 substrate). Format: biochemical. Particulars: for inhibition at 0.01 µM: compound concentration 0.01 μM, read-out: EXP_VALUE(% Inhibition) DNA-PK(h) 0.01 μM; for inhibition at 0.1 µM: compound concentration 0.1 μM, read-out: EXP_VALUE(% Inhibition) DNA-PK(h) 0.1 μM. In outline: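 Human DNA-PK with 50 μM GST-cMyc-p53 substrate; reaction started with Mg/ATP, run 30 min at room temperature, stopped with EDTA. Phospho-Ser15 p53 detected by HTRF (Eu anti-phospho-Ser15, d2 anti-GST), signal = 10000×(Em 665/Em 620).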

Sequence of PI3K-δ (PI3K(p1108/p857) (h)) (O00329 whole entry, the tested form may be a part): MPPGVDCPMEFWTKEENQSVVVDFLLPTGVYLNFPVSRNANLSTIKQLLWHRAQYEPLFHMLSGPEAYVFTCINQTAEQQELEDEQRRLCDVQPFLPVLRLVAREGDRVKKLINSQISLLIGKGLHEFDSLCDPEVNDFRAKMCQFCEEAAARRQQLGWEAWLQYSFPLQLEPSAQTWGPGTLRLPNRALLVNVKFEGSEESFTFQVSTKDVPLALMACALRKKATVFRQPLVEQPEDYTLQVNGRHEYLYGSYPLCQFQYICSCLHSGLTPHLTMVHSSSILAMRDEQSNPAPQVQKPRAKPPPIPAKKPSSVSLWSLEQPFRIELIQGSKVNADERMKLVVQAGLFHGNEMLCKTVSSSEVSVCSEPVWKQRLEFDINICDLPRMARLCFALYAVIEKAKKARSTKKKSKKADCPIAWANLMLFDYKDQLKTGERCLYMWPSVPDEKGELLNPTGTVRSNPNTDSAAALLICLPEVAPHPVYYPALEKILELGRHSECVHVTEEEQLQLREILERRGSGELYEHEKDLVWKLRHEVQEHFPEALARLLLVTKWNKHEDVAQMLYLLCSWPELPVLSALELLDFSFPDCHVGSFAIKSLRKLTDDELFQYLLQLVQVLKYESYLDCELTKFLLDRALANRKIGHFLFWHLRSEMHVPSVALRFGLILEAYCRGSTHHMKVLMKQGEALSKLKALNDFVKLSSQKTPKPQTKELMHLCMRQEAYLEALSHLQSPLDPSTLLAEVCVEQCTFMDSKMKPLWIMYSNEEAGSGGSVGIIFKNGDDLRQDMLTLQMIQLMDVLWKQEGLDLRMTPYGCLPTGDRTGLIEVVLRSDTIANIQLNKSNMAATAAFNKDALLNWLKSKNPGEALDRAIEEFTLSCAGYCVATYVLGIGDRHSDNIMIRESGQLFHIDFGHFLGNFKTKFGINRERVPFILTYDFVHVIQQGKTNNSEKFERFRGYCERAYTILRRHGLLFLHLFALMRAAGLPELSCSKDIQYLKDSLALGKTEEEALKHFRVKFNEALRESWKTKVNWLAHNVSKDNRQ
Sequence of PI3K-δ (PI3K(p1108/p857) (h)) (P27986 whole entry partner, the tested form may be a part): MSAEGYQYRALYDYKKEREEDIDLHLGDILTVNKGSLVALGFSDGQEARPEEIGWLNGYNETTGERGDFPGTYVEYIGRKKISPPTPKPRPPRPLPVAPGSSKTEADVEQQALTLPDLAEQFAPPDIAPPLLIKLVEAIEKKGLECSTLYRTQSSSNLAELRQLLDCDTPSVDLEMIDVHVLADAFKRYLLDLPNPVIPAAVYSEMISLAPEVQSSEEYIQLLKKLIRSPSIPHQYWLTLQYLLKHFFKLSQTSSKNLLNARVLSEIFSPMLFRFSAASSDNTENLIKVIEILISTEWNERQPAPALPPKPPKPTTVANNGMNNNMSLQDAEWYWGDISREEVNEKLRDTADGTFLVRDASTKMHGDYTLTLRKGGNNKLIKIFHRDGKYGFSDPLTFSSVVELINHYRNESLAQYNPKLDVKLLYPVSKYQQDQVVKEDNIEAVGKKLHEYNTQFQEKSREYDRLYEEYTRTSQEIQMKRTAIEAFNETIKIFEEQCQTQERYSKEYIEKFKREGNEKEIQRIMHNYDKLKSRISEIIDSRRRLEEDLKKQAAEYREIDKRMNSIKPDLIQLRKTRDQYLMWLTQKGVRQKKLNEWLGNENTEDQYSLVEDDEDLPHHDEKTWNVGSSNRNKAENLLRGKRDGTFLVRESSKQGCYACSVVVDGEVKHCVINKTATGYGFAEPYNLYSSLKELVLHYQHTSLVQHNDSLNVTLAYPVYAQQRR

As to `C[C@H](Nc1ncnc2[nH]ccc(=O)c12)c1c(Cl)c2cccc(N(C)Cc3ccccc3)c2c(=O)n1-c1ccccc1` [Example 319, (S)-4-((1-(8-(benzyl(methyl)amino)-4-chloro-1-oxo-2-phenyl-1,2-dihydroisoquinolin-3-yl)ethyl)amino)pyrido[2,3-d]pyrimidin-5(8H)-one], in assay [1], the inhibition at 0.01 µM came to 18% and the inhibition at 0.1 µM came out at 62%. Further, on DNA-PK(h), the inhibition at 0.01 µM came out at 7% and the inhibition at 0.1 µM worked out at 25%.

In the case of `C[C@H](Nc1ncnc2[nH]ccc(=O)c12)c1c(Cl)c2cccc(-n3cccn3)c2c(=O)n1-c1ccccc1` [Example 320, (S)-4-((1-(4-chloro-1-oxo-2-phenyl-8-(1H-pyrazol-1-yl)-1,2-dihydroisoquinolin-3-yl)ethyl)amino)pyrido[2,3-d]pyrimidin-5(8H)-one], the results for the inhibition at 0.01 µM (in assay [1]; on DNA-PK(h)) were 35.9% and 12.3%, respectively. The inhibition at 0.1 µM in assay [1] is 83.3%; at DNA-PK(h), 57.3%.

For `C[C@H](Nc1ncnc2[nH]ccc(=O)c12)c1c(Cl)c2cccc(NCc3ccccc3)c2c(=O)n1-c1ccccc1` [Example 321, (S)-4-((1-(8-(benzylamino)-4-chloro-1-oxo-2-phenyl-1,2-dihydroisoquinolin-3-yl)ethyl)amino)pyrido[2,3-d]pyrimidin-5(8H)-one], in assay [1], the inhibition at 0.01 µM turned out to be 22% and the inhibition at 0.1 µM was determined as 68%. For the same compound, at DNA-PK(h), the inhibition at 0.01 µM worked out at 10% and the inhibition at 0.1 µM was 34%.

Turning to `C[C@H](Nc1ncnc2[nH]ccc(=O)c12)c1c(Cl)c2cccc(N(C)C3CCCCC3)c2c(=O)n1-c1ccccc1` [Example 322, (S)-4-((1-(4-chloro-8-(cyclohexyl(methyl)amino)-1-oxo-2-phenyl-1,2-dihydroisoquinolin-3-yl)ethyl)amino)pyrido[2,3-d]pyrimidin-5(8H)-one], the inhibition at 0.01 µM in assay [1] was 11%; on DNA-PK(h), -11%. Moreover, the results for the inhibition at 0.1 µM (in assay [1]; at DNA-PK(h)) were 30% and 21%, respectively.

Take `C[C@H](Nc1ncnc2[nH]ccc(=O)c12)c1c(Cl)c2cccc(NC3CC3)c2c(=O)n1-c1ccccc1` [Example 323, (S)-4-((1-(4-chloro-8-(cyclopropylamino)-1-oxo-2-phenyl-1,2-dihydroisoquinolin-3-yl)ethyl)amino)pyrido[2,3-d]pyrimidin-5(8H)-one]: in assay [1], the inhibition at 0.01 µM was determined as 22% and the inhibition at 0.1 µM was 65%. Moreover, at DNA-PK(h), the inhibition at 0.01 µM amounted to 8% and the inhibition at 0.1 µM came out at 28%.

For `C[C@H](Nc1ncnc2[nH]ccc(=O)c12)c1c(Cl)c2cccc(NCc3cccnc3)c2c(=O)n1-c1ccccc1` [Example 324, (S)-4-((1-(4-chloro-1-oxo-2-phenyl-8-((pyridin-3-ylmethyl)amino)-1,2-dihydroisoquinolin-3-yl)ethyl)amino)pyrido[2,3-d]pyrimidin-5(8H)-one], in assay [1], the inhibition at 0.01 µM was determined as 19% and the inhibition at 0.1 µM is 58%. In addition, on DNA-PK(h), the inhibition at 0.01 µM is 30% and the inhibition at 0.1 µM stood at 74%.

For `CCNc1cccc2c(Cl)c([C@H](C)Nc3ncnc4[nH]ccc(=O)c34)n(-c3ccccc3)c(=O)c12` [Example 325, (S)-4-((1-(4-chloro-8-(ethylamino)-1-oxo-2-phenyl-1,2-dihydroisoquinolin-3-yl)ethyl)amino)pyrido[2,3-d]pyrimidin-5(8H)-one], in assay [1], the inhibition at 0.01 µM is 22% and the inhibition at 0.1 µM was found to be 65%. At DNA-PK(h), the inhibition at 0.01 µM turned out to be 12% and the inhibition at 0.1 µM is 59%.

Turning to `C[C@H](Nc1ncnc2[nH]ccc(=O)c12)c1c(Cl)c2cccc(N3CCN(c4ccccc4)CC3)c2c(=O)n1-c1ccccc1` [Example 326, (S)-4-((1-(4-chloro-1-oxo-2-phenyl-8-(4-phenylpiperazin-1-yl)-1,2-dihydroisoquinolin-3-yl)ethyl)amino)pyrido[2,3-d]pyrimidin-5(8H)-one], in assay [1], the inhibition at 0.01 µM was determined as 17% and the inhibition at 0.1 µM stood at 51%. On DNA-PK(h), the inhibition at 0.01 µM was -4% and the inhibition at 0.1 µM stood at 24%.

For `C[C@H](Nc1ncnc2[nH]ccc(=O)c12)c1c(Cl)c2cccc(N3C[C@]4(C)C[C@H]3CC(C)(C)C4)c2c(=O)n1-c1ccccc1` [Example 327, 4-(((S)-1-(4-chloro-1-oxo-2-phenyl-8-((1S,5R)-1,3,3-trimethyl-6-azabicyclo[3.2.1]octan-6-yl)-1,2-dihydroisoquinolin-3-yl)ethyl)amino)pyrido[2,3-d]pyrimidin-5(8H)-one], the inhibition at 0.01 µM in assay [1] is 4%; at DNA-PK(h) it was -13%. Also, the inhibition at 0.1 µM in assay [1] amounted to 25%; at DNA-PK(h), 8%.

As for `C[C@H](Nc1ncnc2[nH]ccc(=O)c12)c1c(Cl)c2cccc(N3CCC4CCCCC4C3)c2c(=O)n1-c1ccccc1` (stereo partly drawn) [Example 328, 4′-chloro-3′-((S)-1-((5-oxo-5,8-dihydropyrido[2,3-d]pyrimidin-4-yl)amino)ethyl)-2′-phenyl-3,4,4a,5,6,7,8,8a-octahydro-1H-[2,8′-biisoquinolin]-1′(2′H)-one], in assay [1], the inhibition at 0.01 µM is 17% and the inhibition at 0.1 µM is 42%. Also, on DNA-PK(h), the inhibition at 0.01 µM was 2% and the inhibition at 0.1 µM was determined as 12%.

As for `Cc1ccc2c(c1)CN(c1cccc3c(Cl)c([C@H](C)Nc4ncnc5[nH]ccc(=O)c45)n(-c4ccccc4)c(=O)c13)CC2` [Example 329, (S)-4′-chloro-7-methyl-3′-(1-((5-oxo-5,8-dihydropyrido[2,3-d]pyrimidin-4-yl)amino)ethyl)-2′-phenyl-3,4-dihydro-1H-[2,8′-biisoquinolin]-1′(2′H)-one], the inhibition at 0.01 µM in assay [1] was found to be 19%; on DNA-PK(h), 4%. In addition, the results for the inhibition at 0.1 µM (in assay [1]; on DNA-PK(h)) were 55% and 23%, respectively.

On to `C[C@H](Nc1ncnc2[nH]ccc(=O)c12)c1c(Cl)c2cccc(N3CCc4ccsc4C3)c2c(=O)n1-c1ccccc1` [Example 330, (S)-4-((1-(4-chloro-8-(4,7-dihydrothieno[2,3-c]pyridin-6(5H)-yl)-1-oxo-2-phenyl-1,2-dihydroisoquinolin-3-yl)ethyl)amino)pyrido[2,3-d]pyrimidin-5(8H)-one], for which the inhibition at 0.01 µM in assay [1] came out at 30%; on DNA-PK(h) it was 10%. The inhibition at 0.1 µM in assay [1] was 72%; on DNA-PK(h), 32%.

With `C[C@H](Nc1ncnc2[nH]ccc(=O)c12)c1c(Cl)c2cccc(NC3CCOC3)c2c(=O)n1-c1ccccc1` (stereo partly drawn) [Example 331, 4-(((1S)-1-(4-chloro-1-oxo-2-phenyl-8-((tetrahydrofuran-3-yl)amino)-1,2-dihydroisoquinolin-3-yl)ethyl)amino)pyrido[2,3-d]pyrimidin-5(8H)-one], in assay [1], the inhibition at 0.01 µM was 24% and the inhibition at 0.1 µM is 74%. Also, at DNA-PK(h), the inhibition at 0.01 µM came out at 31% and the inhibition at 0.1 µM was found to be 76%.

As to `C[C@H](Nc1ncnc2[nH]ccc(=O)c12)c1c(Cl)c2cccc(NC3CCOCC3)c2c(=O)n1-c1ccccc1` [Example 332, (S)-4-((1-(4-chloro-1-oxo-2-phenyl-8-((tetrahydro-2H-pyran-4-yl)amino)-1,2-dihydroisoquinolin-3-yl)ethyl)amino)pyrido[2,3-d]pyrimidin-5(8H)-one], the figures for the inhibition at 0.01 µM (in assay [1]; on DNA-PK(h)) were 30% and -1%, respectively. Moreover, the inhibition at 0.1 µM in assay [1] came to 75%; at DNA-PK(h), 33%.
